Reference: ChEMBL document CHEMBL6134863, “Novel Mitochondria-Targeted Asymmetric Heptamethine Cyanine Dye for Cancer Targeted NIR Imaging and Potent Necrosis and Senescence Induction with Prolonged Retention” (J Med Chem, 2025)
Calls of active or inactive are those of the source. No cut-off for these calls is given here.

Columns and labels:
[1] = Partition coefficient, logP of compound; assay type: physicochemical; conditions: octanol/water
[2] = Drug uptake in human NCI-H226 cells assessed as increase in green fluorescence intensity at 5 uM incubated for 30 mins by F-actin staining staining based microscopic analysis; assay type: ADME, cell-based; conditions: nci-h226, 0.5 h
[3] = Stability of compound in DMSO-H2O incubated for 1 hr by absorbance based analysis; assay type: physicochemical
[4] = Stability of compound in DMSO-H2O incubated for 150 mins by absorbance based analysis; assay type: physicochemical; conditions: 2.5 h
[5] = Antioxidant activity of compound in presence of ROS; assay type: functional
[6] = Antioxidant activity of compound in presence of RSS; assay type: functional
[7] = Antioxidant activity of compound in presence of SO4; assay type: functional
[8] = Antioxidant activity of compound in presence of CO3; assay type: functional
[9] = Antioxidant activity of compound in presence of HCO3-; assay type: functional
[10] = Antioxidant activity of compound in presence of ClO-; assay type: functional
[11] = Drug accumulation in BALB/c mouse tumor implanted with mouse 4T1 cells assessed as increase in fluorescence intensity at 0.5 mg/kg, iv measured at 48 hrs by imaging based analysis; assay type: ADME, organism-based, Neoplasm; conditions: in vivo
[12] = Drug accumulation in BALB/c mouse plasma xenografted with human NCI-H520 cells assessed as increase in fluorescence intensity at 0.5 mg/kg, iv measured at 96 to 120 hrs by imaging based analysis; assay type: ADME, organism-based; conditions: in vivo, time 96-120 hrs
Mitochondrial membrane = assay: Induction of mitochondrial membrane potential loss in human NCI-H226 cells; assay type: cell membranes
[13] = Toxicity in BALB/c mouse implanted with mouse 4T1 cells assessed as kidney damage at 5 mg/kg, iv measured for 11 days by H and E staining based analysis; assay type: organism-based; conditions: in vivo, 264 h, time 11 day
NCI-H226 [14] = assay: Induction of ROS production in human NCI-H226 cells at 5 uM incubated for 24 hrs by flow cytometry analysis; assay type: functional, cell-based
NCI-H226 [15] = assay: Induction of DNA damage in human NCI-H226 cells assessed as increase in gamma-H2AX level at 5 uM incubated for 24 hrs by immunofluorescence analysis; assay type: functional, cell-based
NCI-H226 [16] = assay: Induction of apoptosis in human NCI-H226 cells assessed as late apoptotic cells at 5 uM incubated for 48 hrs by Annexin V-FITC/PI staining based flow cytometry (reference value: 3.61 %); assay type: functional

In the case of `CCCN1/C(=C/C=C2\CCCC(/C=C/C3=[N+](Cc4ccc(C(=O)O)cc4)c4ccccc4C3(C)C)=C2Cl)C(C)(C)c2ccccc21.[Br-]`, the logP [1] is reported as 6.09, the Drug uptake [2] is reported as “Active” and the Stability [3] is reported as “Stable”. For the same compound, the Stability [4] was “Stable”, the Activity [5] was “Active” and the Activity [6] was “Active”. The Activity [7] was “Active”, the Activity [8] was “Active” and the Activity [9] was “Active”. The Activity [10] was “Active”, the Drug uptake [11] was “Active” and the Drug uptake [12] was “Active”. For the same compound, the Activity (Mitochondrial membrane) was “Active”, the Activity [13] was “Non-toxic” and the Activity (NCI-H226 [14]) was “Active”. For the same compound, the Activity (NCI-H226 [15]) was “Active” and the Activity (NCI-H226 [16]) was 14%.
